Measurements from patent publication US20250235545A1, “POLYPEPTIDE CONJUGATE AND USE THEREOF” (SHANGHAI CHIXI BIOMEDICAL TECHNOLOGY CO., LTD, priority 2024, published 2025).
Like-named read-outs stand apart in the source and are kept apart here. Where a SMILES comes first, the peptide text is derived from it. The star is where a group is joined. X2 = CCCCN(CCc1c2c(nc3ccccc13)-c1cc3c(c(=O)n1C2)COC(=O)[C@]3(O)CC)*; X4 = CCCN(CCc1c2c(nc3ccccc13)-c1cc3c(c(=O)n1C2)COC(=O)[C@]3(O)CC)*; X5 = CC[C@@]1(O)C(=O)OCc2c1cc1n(c2=O)Cc2c-1nc1ccccc1c2CCN(CC(C)C)*; Propanoyl(3-maleimido) = O=C1C=CC(=O)N1CCC(=O)*; PEG6 = NCCOCCOCCOCCOCCOCCOCCC(=O)O

Key:
[1] = test system: sarcoma SJSA-1 tumor model
How it was run: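 Female BALB/c nude mice (6-8 weeks) bearing subcutaneous right-chest SJSA-1 xenografts from 2×10^7 cells were randomized, three per group, once tumors reached at least 100 mm^3. Treatment given once a week for three weeks starting day 1; saline controls.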

[2] = Tumor homogenate activation efficiency, ovarian cancer tissue (Examples 28, 37); format: in vitro ADME; details: pH 5.0, 37° C., 2 h
How it was run: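 Activation is reported as the fraction of free Belotecan peak area among all Belotecan-bearing peaks by HPLC. The conjugate (1 mg/ml) reacts with 100 μg homogenate for 2 h at 37° C in MES buffer, pH 5.0.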

[3] = test system: sarcoma SJSA-1 tumor model; assay: Efficacy in animal model of sarcoma SJSA-1, 30 mg/kg once a week for two weeks (Example 40); format: in vivo, BALB/c mice; details: for SJSA-1 (sarcoma tissue) mean tumor volume (mm^3) Day 1 / SJSA-1 (sarcoma tissue) mean tumor volume (mm^3) Day 4 / SJSA-1 (sarcoma tissue) mean tumor volume (mm^3) Day 7 / SJSA-1 (sarcoma tissue) mean tumor volume (mm^3) Day 10 / Mouse weight (%) on Day 14 / SJSA-1 (sarcoma tissue) growth rate (%) on Day 14 / SJSA-1 (sarcoma tissue) mean tumor volume (mm^3) Day 14: 30 mg/kg once a week for two weeks
Description: Test objective: To further compare the antitumor efficacy of different polypeptide Linkers in an animal tumor model of sarcoma SJSA-1.
Test drug: Polypeptide conjugate and normal saline control group.
The control group was administered normal saline. Administration was performed once a week for two weeks.

[4] = test system: colo320 colorectal cancer tumor model
How it was run: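 Dosing was once a week for four weeks, with saline as control, in randomized groups of three mice. Groups were formed after subcutaneous colo320 xenografts (7.5×10^6 cells, right chest) grew to ≥120 mm^3 in female 6–8-week-old BALB/c nude mice.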

[5] = MTD determination in mice (Examples 27, 36, 44); format: in vivo; details: female, mouse, in vivo, mice, monitored for 14 d; for MTD: read-out: MTD
Description: Test animals: 6-8 weeks old mice, all female; mice were grouped randomly, with six mice in each group, administered with drugs at different concentration gradients separately and monitored for 14 d. A mouse was euthanized at a loss of 20% of its initial weight and deemed to have died of poisoning.

[6] = Tumor homogenate activation efficiency, small cell lung cancer tissue (Example 28); format: in vitro ADME; details: pH 5.0, 37° C., 2 h; Table 5
How it was run: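 Polypeptide conjugate at 1 mg/ml in 50 mM MES, 250 mM NaCl, pH 5.0 incubated with 100 μg small cell lung cancer tissue homogenate at 37° C. for 2 h. HPLC quantified Belotecan release as Belotecan peak area over total area of Belotecan plus all Belotecan-containing compounds.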

[7] = 15 mg/kg once a week for three weeks, Table 7
[8] = 45 mg/kg once a week for three weeks, Table 7
[9] = 15 mg/kg once a week for four weeks, Table 8
[10] = 45 mg/kg once a week for four weeks, Table 8
[11] = Table 14 (Example 43), dose 45 mg/kg, once a week for four weeks, BALB/c mice
[12] = 15 mg/kg once a week for three weeks, Table 2
[13] = 45 mg/kg once a week for three weeks, Table 2
[14] = 15 mg/kg once a week for four weeks, Table 3
[15] = 45 mg/kg once a week for four weeks, Table 3

Row | SMILES | Mouse weight (%) [1, 7] | SJSA-1 (sarcoma tissue) growth rate (%) [1, 7] | SJSA-1 (sarcoma tissue) mean tumor volume (mm^3) [1, 7] | Mouse weight (%) [1, 8] | SJSA-1 (sarcoma tissue) growth rate (%) [1, 8] | SJSA-1 (sarcoma tissue) mean tumor volume (mm^3) [1, 8] | Percentage of release efficiency (%) Ovarian cancer tissue (A2780) ([2]; Table 10) | SJSA-1 (sarcoma tissue) mean tumor volume (mm^3) Day 1 [3] | SJSA-1 (sarcoma tissue) mean tumor volume (mm^3) Day 4 [3] | SJSA-1 (sarcoma tissue) mean tumor volume (mm^3) Day 7 [3] | SJSA-1 (sarcoma tissue) mean tumor volume (mm^3) Day 10 [3] | Mouse weight (%) on Day 14 [3] | SJSA-1 (sarcoma tissue) growth rate (%) on Day 14 [3] | SJSA-1 (sarcoma tissue) mean tumor volume (mm^3) Day 14 [3] | Mouse weight (%) [4, 9] | colo320 (colorectal cancer cell) growth rate (%) [4, 9] | colo320 (colorectal cancer cell) mean tumor volume (mm^3) [4, 9] | Mouse weight (%) [4, 10] | colo320 (colorectal cancer cell) growth rate (%) [4, 10] | colo320 (colorectal cancer cell) mean tumor volume (mm^3) [4, 10] | also measured
1 | CCCN(CCc1c2c(nc3ccccc13)-c1cc3c(c(=O)n1C2)COC(=O)[C@]3(O)CC)C(=O)[C@H](CC(C)C)NC(=O)[C@H](CC(N)=O)NC(=O)[C@H](C)NC(=O)[C@H](C)NC(=O)CCOCCOCCOCCOCCOCCOCCNC(=O)CCN1C(=O)C=CC1=O [MI-6PEG-AANL-D3] ({Propanoyl(3-maleimido)-PEG6}-AANL-X4) | +21% | 1207.54% | 1521.5 mm^3 | +16% | 941.15% | 1205.8 mm^3 | 69.5% | 137.17 mm^3 | 436.65 mm^3 | 735.18 mm^3 | 1111.34 mm^3 | +4.2% | 1316.37% | 1805.67 mm^3 | +18% | 1088.75% | 1279.8 mm^3 | +18% | 641.35% | 753.9 mm^3 | MTD at 14 d ([5]; Table 9): 200 mg/kg
2 | CCCCN(CCc1c2c(nc3ccccc13)-c1cc3c(c(=O)n1C2)COC(=O)[C@]3(O)CC)C(=O)[C@H](CC(C)C)NC(=O)[C@H](CC(N)=O)NC(=O)[C@H](C)NC(=O)[C@H](C)NC(=O)CCOCCOCCOCCOCCOCCOCCNC(=O)CCN1C(=O)C=CC1=O [MI-6PEG-AANL-D4] ({Propanoyl(3-maleimido)-PEG6}-AANL-X2) | +19% | 1031.84% | 1289.8 mm^3 | +19% | 924.41% | 1149.5 mm^3 | 66.7% | 142.01 mm^3 | 486.37 mm^3 | 739.25 mm^3 | 1068.21 mm^3 | +2.3% | 1137.43% | 1615.26 mm^3 | +17% | 1081.25% | 1271.1 mm^3 | +18% | 832.33% | 978.4 mm^3 | Mouse weight (%) [4, 11]: +18%; colo320 (colorectal cancer cell) growth rate (%) [4, 11]: 832.33%; colo320 (colorectal cancer cell) mean tumor volume (mm^3) [4, 11]: 978.4 mm^3
3 | CC[C@@]1(O)C(=O)OCc2c1cc1n(c2=O)Cc2c-1nc1ccccc1c2CCN(CC(C)C)C(=O)[C@H](CC(C)C)NC(=O)[C@H](CC(N)=O)NC(=O)[C@H](C)NC(=O)[C@H](C)NC(=O)CCOCCOCCOCCOCCOCCOCCNC(=O)CCN1C(=O)C=CC1=O [MI-6PEG-AANL-D5] ({Propanoyl(3-maleimido)-PEG6}-AANL-X5) | +18% | 1069.02% | 1304.2 mm^3 | +17% | 933.13% | 1165.2 mm^3 | 74.3% | 139.89 mm^3 | 429.56 mm^3 | 658.17 mm^3 | 876.45 mm^3 | −1.1% | 979.44% | 1370.14 mm^3 | +19% | 1027.54% | 1257.2 mm^3 | +19% | 643.05% | 755.9 mm^3 | 
4 | CC[C@@]1(O)C(=O)OCC2=C1C=C1c3nc4ccccc4c(CCN(C(=O)OCc4ccc(NC(=O)[C@H](CC(N)=O)NC(=O)[C@H](C)NC(=O)[C@H](C)NC(=O)CCOCCOCCOCCOCCOCCOCCNC(=O)CCN5C(=O)C=CC5=O)cc4)C(C)C)c3CN1C2 [MI-6PEG-AAN-PAB-Belotecan] |  |  |  |  |  |  |  | 131.25 mm^3 | 208.13 mm^3 | 554.02 mm^3 | 706.21 mm^3 | −6.9% | 1005.49% | 1319.7 mm^3 |  |  |  |  |  |  | Mouse weight (%) [1, 12]: +6%; SJSA-1 (sarcoma tissue) mean tumor volume (mm^3) [1, 12]: 1357 mm^3; SJSA-1 (sarcoma) Growth rate (%) [1, 12]: 1174.19%; Mouse weight (%) [1, 13]: −5%; SJSA-1 (sarcoma tissue) mean tumor volume (mm^3) [1, 13]: 873.5 mm^3; SJSA-1 (sarcoma) Growth rate (%) [1, 13]: 753.02%; Percentage of release efficiency (%) Ovarian cancer tissue (A2780) ([2]; Table 5): 75.3%; tumor suppression effect (in words) ([3]; 30 mg/kg, SJSA-1 model, Example 40): neither MI-6PEG-AAGP-D2 nor MI-6PEG-AAN-PAB-Belotecan had a satisfactory tumor suppression effect; Mouse weight (%) [4, 14]: +29%; colo320 (colorectal cancer cell) growth rate (%) [4, 14]: 1105.40%; colo320 (colorectal cancer cell) mean tumor volume (mm^3) [4, 14]: 1224.3 mm^3; Mouse weight (%) [4, 15]: +6%; colo320 (colorectal cancer cell) growth rate (%) [4, 15]: 573.97%; colo320 (colorectal cancer cell) mean tumor volume (mm^3) [4, 15]: 635.7 mm^3; Mouse weight (%) [4, 11]: +6%; colo320 (colorectal cancer cell) growth rate (%) [4, 11]: 573.97%; colo320 (colorectal cancer cell) mean tumor volume (mm^3) [4, 11]: 635.7 mm^3; Percentage of release efficiency (%) Small cell lung cancer tissue (NCI-H841) [6]: 61.5%; MTD ([5]; Table 15 (Example 44), six per group): 100 mg/kg; MTD ([5]; Table 4): 100 mg/kg
